Data from EP4119128A1, “PHARMACEUTICAL COMPOSITION FOR THE ORAL ADMINISTRATION OF POORLY SOLUBLE DRUGS COMPRISING AN AMORPHOUS SOLID DISPERSION” (Dr. Falk Pharma GmbH, priority 2021, dated 2023).
Counter-ions that a name gives are not always drawn. Like-named read-outs stand apart in the source and are kept apart here.

Experiments:
[1] = Hygroscopicity of the drug substance; assay type: physicochemical
[2] = Saturation solubility, shake-flask method, quantification by HPLC/UV; assay type: physicochemical; details: for solubility at 24 h: 37 °C, thermodynamic from solid
Experimental: The saturation solubility of RhuDex® choline salt determined at 37°C after 24 hours by HPLC/UV using the shake-flask method is at around or below 0.001 mg/mL when using standard media or buffers such as 0.1 N hydrochloric acid pH 1.2 and 50 mM phosphate buffer pH 7.0 or biorelevant media such as Fasted-State Simulated Intestinal Fluid (i.e. FaSSIF) pH 6.5 and Fed-State Simulated Intestinal Fluid (FeSSIF) pH 5.0.
When increasing the pH value above the pKa and beyond the physiological conditions (i.e. pH > 8), the opposite effect occurs as the molecule is transferred into its negatively charged and soluble ion. […] However, these enabling technologies are neither standard nor easily applicable as they directly affect the physical properties of the drug substance and thereby its thermodynamic stability. Therefore, there is an extremely high risk of failure associated with these technologies concluding that the drug substance cannot be further developed into a suitable, stable, bioavailable and commercially viable formulation. Table 2: Saturation solubility of RhuDex® choline salt in biorelevant media (shake-flask method, 24 h at 37°C, quantification by HPLC/UV)

[3] = Two-stage biorelevant in vitro dissolution test (acid stage pH 2.0, buffer stage pH 7.0, non-sink conditions); assay type: physicochemical
Description: To characterize the in vitro performance of the gastro-resistant granules that contain the RhuDex® choline salt as an amorphous solid dispersion a predictive biorelevant dissolution method has been developed. The design of the method comprises a two-stage in vitro dissolution test that simulates the conditions of the gastrointestinal passage. In a first step the formulation is exposed to simulated gastric fluid where the enteric protection provided by the outer hypromellose succinate acetate layer should ensure that there is no premature drug substance release from the granules. The subsequent step simulates the condition of the upper intestine where the enteric polymer should immediately dissolve and where the drug substance release should start. The gastro-resistance and the release profile are measured by the amount of RhuDex® choline salt dissolved in the acid and buffer medium. The established test system relies on the use of standard media and buffer systems without the addition of any surfactants or bile acids. […] The extent of the spring and parachute effect should be measurable in the simulated intestinal fluid. The parameters of the biorelevant dissolution method are presented below. Summarizing the established conditions for testing the biorelevant dissolution of RhuDex® choline salt gastro-resistant granules, the studies are conducted under non-sink conditions as follows: […]

[4] = Apparent permeation across Caco-2 cell monolayers; assay type: in vitro ADME, human; details: human, Caco-2; apical buffer pH 7.0, basolateral buffer pH 7.4; test concentration 127 µg/ml
Experimental: (§1) The biorelevant dissolution profile of the embodiment positively affects the second relevant parameter predicting the compound's oral bioavailability, i.e. its permeability. As shown in apparent permeation studies across monolayers formed by human colon carcinoma cell line Caco-2 the spring and parachute effect observed for formulated RhuDex® choline salt also leads to a higher permeation rate when compared with its crystalline and unformulated counterpart. The permeation assays were performed using an apical buffer at a pH value of 7.0 and a basolateral buffer at a pH value of 7.4. The test concentration was set to 127 µg/ml and should represent a potential clinical dose of 31.75 mg RhuDex® choline salt administrered in a volume of 250 ml (i.e. 31.75 mg/250 ml = 0.127 mg/ml). With an apparent permeation value (Papp) of less than 1 (i.e. 0.12 x 10^-6 cm/s) the permeability of crystalline RhuDex® choline salt across Caco-2 cell monolayers must be classified as poor and a low bioavailability of unformulated drug substance can be estimated. However, the Papp value increased to 2.7 x 10^-6 cm/s when using an amorphous solid dispersion of RhuDex® choline salt in the same experiment indicating a remarkable shift from low to moderate permeability. This effect can be cleary attributed to the embodiment.

[5] = system: monolayers formed by human colon carcinoma cell line Caco-2; assay: Apparent permeation across Caco-2 cell monolayers; assay type: in vitro ADME; details: Caco-2 cell monolayers; 127 µg/ml
Experimental: as §1

[6] = Saturation solubility, shake-flask method, quantification by HPLC/UV; assay type: physicochemical; details: 0.01 N HCl, 37 °C, pH 2, simulated gastric fluid, thermodynamic from solid, 0.01 N HCl pH 2; 24 h at 37°C
[7] = pKa value of the drug substance; assay type: physicochemical; details: free acid

Row | SMILES | hygroscopicity [1] | biopharmaceutics classification system (BCS) class [2] | solubility at 24 h ([2]; 50 mM borate buffer, pH 9.5, aqueous buffer, 50 mM borate buffer, pH 9.5, read-out: solubility) [µg/mL] | solubility at 24 h ([2]; 50 mM phosphate buffer, pH 7, aqueous buffer, Phosphate buffer 50 mM, pH 7.0, 24 h at 37°C, read-out: Saturation solubility) [µg/mL] | solubility at 24 h ([2]; 50 mM phosphate buffer, pH 7, aqueous buffer, pH 7.0, read-out: solubility of the drug substance) [µg/mL] | solubility at 24 h ([2]; aqueous buffer, 37°C, 24 hours, shake-flask, 0.1 N hydrochloric acid pH 1.2, 50 mM phosphate buffer pH 7.0, FaSSIF pH 6.5, FeSSIF pH 5.0, read-out: saturation solubility) [µg/mL] | solubility at 24 h ([2]; FaSSIF, pH 6.5, fassif, FaSSIF, pH 6.5, 24 h at 37°C, read-out: Saturation solubility) [µg/mL] | solubility at 24 h ([2]; FeSSIF, pH 5, fessif, FeSSIF, pH 5.0, 24 h at 37°C, read-out: Saturation solubility) [µg/mL] | volume required to completely dissolve one dose ([2]; dose 31.75 mg, minimum solubility 0.001 mg/mL, physiologically relevant conditions) | solubility at 24 h ([2]; water, pH 9.9, water, in water, final pH value of the solution 9.9, read-out: solubility) [µg/mL] | amount in solution when presented in crystalline form ([3]; 0.001 mg/ml x 460 ml, buffer pH 7.0) [mg] | dose in solution when presented in crystalline form ([3]; calculated from solubility 0.001 mg/ml in 460 ml buffer pH 7.0, dose 31.75 mg) [%] | Papp at 127 µg/ml [4] [×10⁻⁶ cm/s] | permeability classification [5] | solubility at 24 h [6] [µg/mL] | pKa [7]
1 | O=C(NCC(F)F)c1ccc(-n2[nH]c3c(nnc4c(F)cccc43)c2=O)cc1 [RhuDex® choline salt, N-(2,2-difluoroethyl)-4-(6-fluoro-3-oxo-1,3-dihydropyrazolo[4,3-c]cinnolin-2-yl)-benzamide] | only slightly hygroscopic | either Class II (low solubility/high permeability) or Class IV (low solubility/low permeability) | 1300 | 0.7 | ~1 | ≤ 1 | 1.1 | 0.1 | more than 30 L | ~10000 | 0.46 | 1.4 | 0.12 | poor | 0.1 | 
2 | O=C(NCC(F)F)c1ccc(-n2[nH]c3c(nnc4c(F)cccc43)c2=O)cc1 [RhuDex® free acid, 4-(6-fluoro-3-oxo-1,3-dihydro-pyrazolo[4,3-c]cinnolin-2-yl)-N-(2,2-difluoro-ethyl)-benzamide] |  |  |  |  |  |  |  |  |  |  |  |  |  |  |  | 5.8
